Laboratory results taken from the supplement of paper PMC10307832.

Columns and labels:
Assay in all cases: relative viability (nuclei count vs DMSO), 5 days (fraction); higher = more cells survive
RU-SKI 43 = compound: CC[C@@H](C)CNCC(=O)N1CCC2=C([C@@H]1COC3=CC=CC(=C3)C)C=CS2 [RU-SKI 43]
In short: (§1)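 MetaXpress counted nuclei in 4× images of lung cancer cell lines that had been fixed, permeabilised and Hoechst-stained in one step. Before that, cells in 1536-well plates were kept overnight at 37 °C, pinned with five √10-spaced library-drug doses on vehicle-anchored plates, and cultured 5 days without medium change. Viability takes treated-well nuclei over vehicle-well nuclei and uses the median across plates. Plates were accepted only at control CV below 25% and at least one doubling.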

Irinotecan = compound: CCc1c2c(nc3ccc(OC(=O)N4CCC(N5CCCCC5)CC4)cc13)-c1cc3c(c(=O)n1C2)COC(=O)[C@]3(O)CC [Irinotecan]
In short: as §1

MK-8033 = compound: Cn1cc(-c2cnc3ccc4ccc(CS(=O)(=O)NCc5ccccn5)cc4c(=O)c3c2)cn1 [MK-8033]
In short: as §1

Irinotecan + Crizotinib = compound: CCc1c2c(nc3ccc(OC(=O)N4CCC(N5CCCCC5)CC4)cc13)-c1cc3c(c(=O)n1C2)COC(=O)[C@]3(O)CC [Irinotecan] + C[C@@H](Oc1cc(-c2cnn(C3CCNCC3)c2)cnc1N)c1c(Cl)ccc(F)c1Cl [Crizotinib] (partner 1 µM)
In short: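 Lung cancer cell lines, seeded in 1536-well plates, were treated the following day by pin tool with a single drug or with five library-drug doses (not always all listed) in √10 steps on top of a fixed anchor-drug dose. Cells were fixed and nuclei stained in one step after 5 days, and nuclei were counted. Relative viability is the nuclei count for treated wells divided by that for vehicle wells, reported as medians of duplicate plates.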

| Cell Line | relative viability (RU-SKI 43; 0.1 µM) | relative viability (RU-SKI 43; 0.3162 µM) | relative viability (RU-SKI 43; 1 µM) | relative viability (RU-SKI 43; 3.162 µM) | relative viability (RU-SKI 43; 10 µM) | relative viability (Irinotecan; 0.6325 µM) | relative viability (Irinotecan; 2 µM) | relative viability (Irinotecan; 6.325 µM) | relative viability (Irinotecan; 20 µM) | relative viability (MK-8033; 0.02 µM) | relative viability (MK-8033; 0.06325 µM) | relative viability (MK-8033; 0.2 µM) | relative viability (MK-8033; 0.6325 µM) | relative viability (MK-8033; 2 µM) | relative viability (Irinotecan + Crizotinib; first compound 0.6325 µM) | relative viability (Irinotecan + Crizotinib; first compound 2 µM) | relative viability (Irinotecan + Crizotinib; first compound 6.325 µM) | relative viability (Irinotecan + Crizotinib; first compound 20 µM) |
| --- | --- | --- | --- | --- | --- | --- | --- | --- | --- | --- | --- | --- | --- | --- | --- | --- | --- | --- |
| NCI-H23 | 1.03 | 1.18 | 1.1 | 1.1 | 0.926 | 0.693 | 0.73 | 0.332 | 0.234 | 0.977 | 0.897 | 0.893 | 1.06 | 0.86 | 0.514 | 0.463 | 0.295 | 0.348 |
| NCI-H322M | 0.985 | 0.945 | 1.05 | 0.939 | 0.978 | 0.8 | 0.754 | 0.503 | 0.385 | 0.952 | 0.766 | 0.878 | 0.957 | 0.929 | 0.475 | 0.405 | 0.42 | 0.316 |
| NCI-H358 | 0.94 | 1.19 | 0.922 | 0.97 | 0.898 | 0.744 | 0.66 | 0.323 | 0.169 | 0.961 | 0.751 | 0.917 | 0.958 | 0.806 | 0.497 | 0.431 | 0.484 | 0.139 |
| NCI-H441 | 1.12 | 1.16 | 1.08 | 1.14 | 0.956 | 0.567 | 0.614 | 0.303 | 0.266 | 1.01 | 0.903 | 1.04 | 1.02 | 1.08 | 0.577 | 0.314 | 0.257 | 0.286 |
| NCI-H460 | 1.04 | 1.06 | 1.03 | 1.01 | 0.967 | 0.74 | 0.556 | 0.142 | 0.0536 | 0.992 | 0.945 | 0.96 | 1.06 | 1.03 | 0.709 | 0.239 | 0.0835 | 0.0573 |
| NCI-H520 | 1.07 | 1.08 | 1.09 | 1.06 | 0.938 | 0.898 | 0.726 | 0.365 | 0.325 | 1.06 | 0.98 | 1.01 | 1.03 | 0.928 | 0.639 | 0.524 | 0.279 | 0.225 |
| NCI-H596 | 0.945 | 0.965 | 1.01 | 0.963 | 0.983 | 0.889 | 1.07 | 0.914 | 0.643 | 0.918 | 0.838 | 0.971 | 0.983 | 1.04 | 0.945 | 0.924 | 0.741 | 0.68 |
| NCI-H647 | 1.04 | 0.987 | 1.13 | 1.07 | 0.996 | 0.866 | 0.815 | 0.191 | 0.142 | 0.919 | 0.943 | 0.89 | 0.935 | 0.874 | 0.852 | 0.365 | 0.227 | 0.198 |
| NCI-H650 | 0.968 | 0.9 | 1.13 | 0.758 | 1.05 | 0.648 | 0.794 | 0.259 | 0.241 | 0.985 | 0.977 | 1.06 | 0.954 | 0.906 | 0.543 | 0.436 | 0.258 | 0.235 |
| NCI-H661 | 0.92 | 1.05 | 1.06 | 0.99 | 0.943 | 1.05 | 0.838 | 0.52 | 0.454 | 0.994 | 0.849 | 1.01 | 1.01 | 0.993 | 0.923 | 0.842 |  | 0.517 |
| NCI-H727 | 0.838 | 0.989 | 1.08 | 1.1 | 0.811 | 0.516 | 0.565 | 0.531 | 0.54 | 0.877 | 0.691 | 0.911 | 1.13 | 0.97 | 0.366 | 0.556 | 0.497 | 0.447 |
| NCI-H838 | 0.97 | 0.965 | 1.05 | 1 | 0.981 | 1.05 | 1.02 | 0.526 | 0.316 | 0.954 | 0.923 | 0.919 | 0.952 | 0.953 | 0.769 | 0.679 | 0.365 | 0.276 |
| NCI-H1299 | 1.02 | 1.09 | 1.05 | 1.04 | 0.946 | 0.799 | 0.738 | 0.489 | 0.283 | 1.01 | 1.02 | 0.994 | 0.985 | 1 | 0.747 | 0.794 | 0.453 | 0.173 |
| NCI-H1355 | 1.02 | 1.12 | 1.08 | 1.04 | 0.921 |  | 0.948 | 0.426 | 0.3 | 1.02 | 0.894 | 0.914 | 1.01 | 0.992 | 0.896 | 0.407 | 0.234 | 0.233 |
